A short description of data set [1]: Solubility in aqueous media. The format is physicochemical. The following applies: result in words.
In another data set the test system is MDA-MB-231 cells. Briefly: Cell cycle analysis by flow cytometry (propidium iodide), MDA-MB-231. The format is cell-based, human. The note with it: 24 h; for Cell proliferation index (%) / Number of cells (%) in cell cycle phase G0/G1 / Number of cells (%) in cell cycle phase G2M / Number of cells (%) in cell cycle phase S: M ± SD (n = 3). The method, then: To study the potential cytostatic effect of compound 1d, we chose the method of cell cycle analysis using flow cytometry by DNA staining with propidium iodide.
To analyze possible effects on the cell cycle, we tested three concentrations of compound 1d, which were close to CC50 calculated on the basis of viability assessment data (MTT assay).
Cell cycle analysis was performed by flow cytometry by staining DNA with propidium iodide (PI). For this, cells were seeded into 6-well plates: 2 × 10^5 COLO201 cells per well and 1.2 × 10^5 MDA-MB-231 cells per well. […] The final concentration of DMSO in the culture medium was 0.1%; an equivalent volume was added to the control cells. The plates were incubated for 24 h in a CO2 incubator. Then, cells were detached from the plastic surface using TrypLE, washed with PBS, and fixed with 70% ethanol. Next, the cells were incubated for 1 h in the dark at 4 °C, then sedimented by centrifugation at 184× g for 10 min, and washed twice with PBS. PBS (0.3 mL) containing 0.1% Triton X-100, 1 µg/mL PI, and 0.2 mg/mL RNAse A was added to the pellet, incubated for 30 min at room temperature in the dark, and analyzed on a CytoFlex flow cytometer (Beckman Coulter, Brea, CA, USA).
The cell population in the test sample was found and gated on forward versus side scatter (FSC-A vs. SSC-A). Next, doublets were discriminated and removed via PI signal height versus PI signal area (PI-H vs. PI-A). For cell cycle phases analysis, PI-A was plotted against number of events (number of cells) (PI-A vs. Count).
The flow cytometry data were processed using the Kaluza Analysis 2.1 software (Beckman Coulter, Brea, CA, USA). Percentages of cell populations distributed in the various phases of the cell cycle (sub-G1, G0/G1, S, and G2M) were calculated. The result was considered significant if the coefficient of variation (CV) was less than 6.
For orientation: A flow cytometer gives signals particle by particle.

In data set [2] the test system is herpes simplex virus type 1 (HSV-1), including acyclovir-resistant HSV-1 strain. Also noted: method as in doi:10.1002/ejoc.201900727, doi:10.1515/pac-2019-1214, doi:10.1007/s10593-021-02929-z. The note with it: HSV-1 including acyclovir-resistant strain; cited from earlier work.

With `CC1COc2c(ccc(F)c2F)N1C(=O)CCCCCCCCCCNc1ncnc2[nH]cnc12` (stereo not drawn) [Compound 1d], the “solubility in aqueous media” value in data set [1] was “low solubility in aqueous media”. Besides, in the data set on MDA-MB-231 cells (MDA-MB-231, 10×10–6 M), the “Cell proliferation index (%)” value was 39.08%, the “Number of cells (%) in cell cycle phase G0/G1” value is listed as 60.92%, the “Number of cells (%) in cell cycle phase G2M” value turned out to be 13.74% and the “Number of cells (%) in cell cycle phase S” value came out at 25.33%. In addition, in the data set on MDA-MB-231 cells (MDA-MB-231, 20×10–6 M), the “Cell proliferation index (%)” value was found to be 37.57%, the “Number of cells (%) in cell cycle phase G0/G1” value is 62.13%, the “Number of cells (%) in cell cycle phase G2M” value amounted to 17.05% and the “Number of cells (%) in cell cycle phase S” value worked out at 20.52%. In addition, in the data set with MDA-MB-231 cells (MDA-MB-231, 30×10–6 M), the “Cell proliferation index (%)” value was found to be 40.63%, the “Number of cells (%) in cell cycle phase G0/G1” value was 59.37%, the “Number of cells (%) in cell cycle phase G2M” value is 27.49% and the “Number of cells (%) in cell cycle phase S” value was 13.13%. Besides, the “cell cycle arrest phase” value in the data set on MDA-MB-231 cells (MDA-MB-231, entire range of concentrations studied) was “arrest of the cell cycle in the G0/G1 phase”.

For the compound `CC1COc2c(ccc(F)c2F)N1C(=O)CCCCCCCNc1ncnc2[nH]cnc12` (stereo not drawn) [Compound 1c], the “antiviral activity in vitro against HSV-1” value in data set [2] is “high antiviral activity”.
